The results in this text go back to ChEMBL document CHEMBL1150450, “Synthesis and antiangiogenic activity of new carbohydrate derivatives” (Bioorg Med Chem Lett, 1996).

The test system of one test is A-431. Kind of test: In vitro antiproliferative effect against A431 human epidermoid carcinoma cells. The test is classed as functional, cell-based.
The species named for the next test is Gallus gallus. The experiment in a line: Antiangiogenic activity using CAM assay, activity expressed as % of eggs with avascular zone (125 nM). The class given is functional.
Test [1] is described as follows: Antiproliferative effect against primary endothelial cells from pork aorta(ECPA). The class given is functional, cell-based, Sus scrofa, Endothelial cell.
Test [2] in a line: Compound was tested for antiproliferative effect against primary endothelial cells from pork aorta(ECPA). Conditions: Sus scrofa, Endothelial cell. The test is classed as functional, cell-based.
A short description of test [3]: Compound was tested for antiproliferative effect against primary endothelial cells from pork aorta(ECPA) with first-phase IC50 of 0.1 nM. Conditions: Sus scrofa, Endothelial cell.
The nature of test [4]: Compound was tested for antiproliferative effect against primary endothelial cells from pork aorta(ECPA) with first-phase IC50 of 0.001 nM. Conditions: Sus scrofa, Endothelial cell.
Test [5] can be described thus: Compound was tested for antiproliferative effect against primary endothelial cells from pork aorta (ECPA) with first-phase IC50 of 0.1 nM. The following applies: Sus scrofa, Endothelial cell.

Several values for one entry are separate records, joined by “and”; a condition that tells them apart may be missing. Identical values can stand only once.

For the molecule `CO[C@@H]1[C@H](OC(=O)NC(=O)CCl)CO[C@]2(COC(C)(C)O2)[C@]1(CCCCCc1ccccc1)OC(=O)NC(=O)CCl`, the IC50 in the test with A-431 (Homo sapiens, A-431) worked out at 1.2 µM; in test [1] (Sus scrofa, Endothelial cell), 0.8 µM. The same molecule displayed an Eggs in the test filed under Gallus gallus of 88%.
`CO[C@@H]1[C@H](OC(=O)NC(=O)c2ccccc2)CO[C@]2(COC(C)(C)O2)[C@@]1(O)C1(C)CO1` (some centres not stated): the IC50 in the test with A-431 (Homo sapiens, A-431) is more than 500 µM; in test [1] (Sus scrofa, Endothelial cell), 363 µM. The same molecule had an Eggs in the test listed under Gallus gallus of 55%.
The corresponding values for `CNC(=O)O[C@@H]1CO[C@]2(COC(C)(C)O2)[C@@](O)(C2(C)CO2)[C@@H]1OC` (some centres not stated) are more than 500 µM, 195 µM and 51%.
The corresponding values for `CCOC(=O)CNC(=O)O[C@@H]1CO[C@]2(COC(C)(C)O2)[C@@](O)(C2OC2CC(C)C)[C@@H]1OC` (some centres not stated) are 442 µM, 343 µM and 21%.
The corresponding values for `CO[C@@H]1[C@H](OC(=O)NC(=O)CCl)CO[C@]2(COC(C)(C)O2)[C@@]1(OC(=O)NC(=O)CCl)C1OC1CCCc1ccccc1` (some centres not stated) are 3.7 µM, 16 µM and 63%.
Turning to `CO[C@@H]1[C@H](OC(=O)NC(=O)CCl)CO[C@]2(COC(C)(C)O2)[C@@]1(OC(=O)NC(=O)CCl)C1(C)CO1` (some centres not stated), the IC50 in the test with A-431 (Homo sapiens, A-431) is 38 µM; in test [1] (Sus scrofa, Endothelial cell), 122 µM. In the test filed under Gallus gallus, this molecule showed an Eggs of 62%.
The corresponding values for `CO[C@@H]1[C@H](OC(=O)NC(=O)CCl)CO[C@]2(COC(=O)O2)[C@]1(CCCCCc1ccccc1)OC(=O)NC(=O)CCl` are 2 µM, 2.4 µM and 80%.
Consider `CO[C@@H]1C(=O)CO[C@]2(COC(C)(C)O2)[C@@]1(O)C1(C)CO1` (some centres not stated), for which the IC50 in the test on A-431 (Homo sapiens, A-431) is more than 500 µM; in test [1] (Sus scrofa, Endothelial cell), 119 µM. Besides, the Eggs in the test filed under Gallus gallus was 48%.
The like results for `CO[C@@H]1[C@H](OC(=O)NCCCl)CO[C@]2(COC(C)(C)O2)[C@@]1(O)C1(C)CO1` (some centres not stated) were, in that order, more than 500 µM, 278 µM and 10%.
The corresponding values for `CO[C@@H]1[C@H](OC(=O)NC(=O)CCl)CO[C@]2(COC(C)(C)O2)[C@@]1(OC)C1(C)CO1` (some centres not stated) are 39 µM, 175 µM and 16%.
The like results for `CO[C@@H]1[C@H](OC(=O)NC(=O)CCl)CO[C@]2(COC(C)(C)O2)[C@@]1(OC(=O)NC(=O)CCl)C(C)C` were, in that order, 5.6 µM, 23 µM and 95%.
`CO[C@@H]1[C@H](OC(=O)NC(=O)CCl)CO[C@]2(COC(C)(C)O2)[C@@]1(O)C1OC1CC(C)C` (some centres not stated): the IC50 in the test on A-431 (Homo sapiens, A-431) was 44 µM; in test [1] (Sus scrofa, Endothelial cell) it was 124 µM; in test [1] (endothelial cell), 178 µM. In addition, in the test filed under Gallus gallus, the Eggs was 75% and 68%.
For the molecule `CO[C@@H]1[C@H](OC(=O)NC(=O)CCl)CO[C@]2(COC(C)(C)O2)[C@@]1(O)C1OC1CCCc1ccccc1` (some centres not stated), the IC50 in the test with A-431 (Homo sapiens, A-431) came out at 19 µM; with A-431 (a-431), 29 µM; in test [1] (Sus scrofa, Endothelial cell), 68 µM; in test [1] (endothelial cell) it was 90 µM. Also, in the test filed under Gallus gallus, the Eggs is 79% and 76%.
On to `CO[C@@H]1[C@H](OC(=O)NC(=O)CCl)CO[C@]2(COC(=O)O2)[C@@]1(O)CCCCCc1ccccc1`, for which the IC50 is 11 µM with A-431 (Homo sapiens, A-431) and 14 µM in test [2]. In the test listed under Gallus gallus, the Eggs turned out to be 95%.
Take `CCOC(=O)NC(=O)O[C@@H]1CO[C@]2(COC(C)(C)O2)[C@@](O)(C2OC2CC(C)C)[C@@H]1OC` (some centres not stated): the IC50 with A-431 (Homo sapiens, A-431) came out at 471 µM; in test [1] (Sus scrofa, Endothelial cell), 398 µM. In addition, in the test listed under Gallus gallus, the Eggs is listed as 11%.
The like results for `CO[C@@H]1[C@H](OC(=O)NC(=O)CCl)CO[C@]2(COC(C)(C)O2)[C@@]1(O)C1(C)CO1` (some centres not stated) were, in that order, 84 µM, 57 µM and 84%.
Turning to `C=C(C)[C@@]1(O)[C@H](OC)[C@H](OC)CO[C@]12CO2`, the IC50 is more than 500 µM in the test on A-431 (Homo sapiens, A-431) and more than 500 µM in test [1] (Sus scrofa, Endothelial cell). The molecule further returned an Eggs in the test filed under Gallus gallus of 32%.
With `CO[C@@H]1[C@H](OC(=O)/C=C/C=C/C=C/C=C/C(=O)O)CC[C@]2(CO2)[C@H]1[C@@]1(C)O[C@@H]1CC=C(C)C` [FUMAGILLIN], the IC50 came to 48 µM with A-431 (Homo sapiens, A-431) and 100 µM in test [3]. In the test listed under Gallus gallus, this molecule gave an Eggs of 80%.
With `CO[C@@H]1[C@H](OC(=O)NC(=O)CCl)CC[C@]2(CO2)[C@H]1[C@@]1(C)O[C@@H]1CC=C(C)C` [O-CHLOROACETYLCARBAMOYLFUMAGILLOL], the IC50 with A-431 (Homo sapiens, A-431) stood at 5.3 µM; in test [4] it was 12 µM. This molecule also yielded an Eggs in the test filed under Gallus gallus of 85%.
For `CO[C@@H]1C(=O)CC[C@]2(CO2)[C@@]1(O)[C@@]1(C)O[C@@H]1CC=C(C)C` [OVALICIN], the IC50 was determined as 7.5 µM with A-431 (Homo sapiens, A-431) and 10 µM in test [5].
